The experiment addresses T1, Octα2R (α2-adrenergic-like octopamine receptor) (Drosophila melanogaster, UniProt Q9VE32).
T1 sequence (Q9VE32 1-699): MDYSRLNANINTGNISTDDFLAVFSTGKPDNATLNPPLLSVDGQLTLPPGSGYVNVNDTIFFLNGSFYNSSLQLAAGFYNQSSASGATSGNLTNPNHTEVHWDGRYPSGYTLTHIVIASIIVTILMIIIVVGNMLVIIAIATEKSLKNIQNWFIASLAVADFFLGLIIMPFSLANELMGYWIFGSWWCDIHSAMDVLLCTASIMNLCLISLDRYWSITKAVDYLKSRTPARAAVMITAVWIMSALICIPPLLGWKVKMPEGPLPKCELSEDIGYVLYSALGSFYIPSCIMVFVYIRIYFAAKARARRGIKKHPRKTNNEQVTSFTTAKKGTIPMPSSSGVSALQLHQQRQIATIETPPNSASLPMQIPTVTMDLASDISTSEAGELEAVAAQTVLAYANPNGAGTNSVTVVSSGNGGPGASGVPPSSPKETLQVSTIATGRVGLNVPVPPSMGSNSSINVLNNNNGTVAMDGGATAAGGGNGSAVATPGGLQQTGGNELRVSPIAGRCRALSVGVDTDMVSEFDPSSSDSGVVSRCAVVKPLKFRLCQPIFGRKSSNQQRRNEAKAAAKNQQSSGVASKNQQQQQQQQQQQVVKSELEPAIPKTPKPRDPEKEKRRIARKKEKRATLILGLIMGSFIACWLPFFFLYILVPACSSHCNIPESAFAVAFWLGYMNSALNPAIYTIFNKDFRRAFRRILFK
Kind of experiment: aequorin Ca2+ luminescence, inhibition of octopamine response, HEK-293 cells. The class given is cell-based.

For orientation: IC50 means the concentration needed to halve the response being measured.

For the compound `NC1=NCC2c3ccccc3Cc3ccccc3N12` (stereo not drawn) [EP, epinastine], the half-inhibitory concentration (IC50) came out at 100 nM.
The compound `Cc1ccc(N(CC2=NCCN2)c2cccc(O)c2)cc1` [PA, phentolamine] gave an IC50 of 93 nM.
Take `COC(=O)[C@@H]1[C@H]2C[C@H]3c4[nH]c5ccccc5c4CCN3C[C@@H]2CC[C@@H]1O` [YO, yohimbine]: the IC50 was 18000 nM.

The record behind these values is PMC9744561 (Genes, Brain, and Behavior, 2022).
